Earlier results, collected in patent US11747352B2 (Concordia University, Inc., priority 2017, dated 2023).
Where two headings read alike, the source gives them in different places.

Columns and labels:
[1] = cited from earlier work
[2] = cited from earlier work; remark: listed apart in the source

CSc1ccc2c(c1)N(CCC1CCCCN1C)c1ccccc1S2 (stereo not shown) [Thioridazine]
HALF LIFE ([1]; Table CYP2D6): 21 to 24 h

COCCc1ccc(OCC(O)CNC(C)C)cc1 (stereo not shown) [Metoprolol]
HALF LIFE ([1]; Table CYP2D6): 3 to 7 h

O=C1Nc2ccc(Cl)cc2[C@@](C#CC2CC2)(C(F)(F)F)O1 [Efavirenz]
ORAL BIOAVAILABILITY ([2]; Table CYP3A4): 40-45% ^

CCOC(=O)C1=C(COCCN)NC(C)=C(C(=O)OC)C1c1ccccc1Cl (stereo not shown) [Amlodipine]
ORAL BIOAVAILABILITY ([2]; Table CYP3A4): 64-90% ^

COc1cc(N)c(Cl)cc1C(=O)NC1CCN(CCCOc2ccc(F)cc2)CC1OC (stereo not shown) [Cisapride]
ORAL BIOAVAILABILITY ([2]; Table CYP3A4): 35-65% ^

CC(C)NCC(O)COc1cccc2ccccc12 (stereo not shown) [Propranolol]
HALF LIFE ([1]; Table CYP2D6): 3 to 6 h
ORAL BIOAVAILABILITY ([2]; Table CYP2D6): 30-70% ^

Cc1cccc(C)c1OCC(C)N (stereo not shown) [Mexiletine]
HALF LIFE ([1]; Table CYP1A2): 10 to 12 h
HALF LIFE ([1]; Table CYP2D6): 6 to 17 h
ORAL BIOAVAILABILITY ([2]; Table CYP2D6): 80-90% ^

Cc1nccn1CC1CCc2c(c3ccccc3n2C)C1=O (stereo not shown) [Ondansetron]
HALF LIFE ([1]; Table CYP1A2): 3 to 6 h
HALF LIFE ([1]; Table CYP2D6): 3 to 6.2 h

CC/C(=C(\c1ccccc1)c1ccc(OCCN(C)C)cc1)c1ccccc1 [Tamoxifen]
HALF LIFE ([1]; Table CYP1A2): ~120 to 170 h
HALF LIFE ([1]; Table CYP2C9): 120 to 170 h
HALF LIFE ([1]; Table CYP2D6): 120 to 170 h

O=C(NCC1CCCCN1)c1cc(OCC(F)(F)F)ccc1OCC(F)(F)F (stereo not shown) [Flecainide]
ORAL BIOAVAILABILITY ([2]; Table CYP2D6): 70-95% ^

CC(C)C[C@H]1C(=O)N2CCC[C@H]2[C@]2(O)O[C@](NC(=O)[C@@H]3C=C4c5cccc6[nH]c(Br)c(c56)C[C@H]4N(C)C3)(C(C)C)C(=O)N12 [Bromocriptine]
ORAL BIOAVAILABILITY ([2]; Table CYP3A4): 65-95% ^

Cc1nc2n(c(=O)c1CCN1CCC(c3noc4cc(F)ccc34)CC1)CCCC2 [Risperidone]
HALF LIFE ([1]; Table CYP2D6): 3 to 20 h

CC(=O)Nc1ccc(O)cc1 [Paracetamol]
HALF LIFE ([1]; Table CYP1A2): 1 to 4 h

CN(C)CCC=C1c2ccccc2C=Cc2ccccc21 [Cyclobenzaprine]
HALF LIFE ([1]; Table CYP1A2): 8 to 37 h

CNCC[C@H](Oc1cccc2ccccc12)c1cccs1 [Duloxetine]
ORAL BIOAVAILABILITY ([2]; Table CYP2D6): 30-80% ^

CN(C)CCC=C1c2ccccc2CCc2ccccc21 [Amitriptyline]
HALF LIFE ([1]; Table CYP1A2): ~13 to 36 h
HALF LIFE ([1]; Table CYP2D6): ~13 to 36 h
ORAL BIOAVAILABILITY ([2]; Table CYP2C9): 30-60% ^
ORAL BIOAVAILABILITY ([2]; Table CYP2D6): ~43-46% ^

C1CCC(C(CC2CCCCN2)C2CCCCC2)CC1 (stereo not shown) [Perhexiline]
HALF LIFE ([1]; Table CYP2D6): 12 to 18 h

CCC1=C(C)CN(C(=O)NCCc2ccc(S(=O)(=O)NC(=O)N[C@H]3CC[C@H](C)CC3)cc2)C1=O [Glimepiride]
HALF LIFE ([1]; Table CYP2C9): 5 to 9.2 h

Cc1cccc(Nc2ccncc2S(=O)(=O)NC(=O)NC(C)C)c1 [Torasemide]
HALF LIFE ([1]; Table CYP2C9): 2.2 to 3.8 h

CCOc1cc(CC(=O)N[C@@H](CC(C)C)c2ccccc2N2CCCCC2)ccc1C(=O)O [Repaglinide]
ORAL BIOAVAILABILITY ([2]; Table CYP3A4): 55%

Cc1cc2c(s1)Nc1ccccc1N=C2N1CCN(C)CC1 [Olanzapine]
HALF LIFE ([1]; Table CYP1A2): 21 to 54 h

CC[C@H]1OC(=O)[C@H](C)[C@@H](O[C@H]2C[C@@](C)(OC)[C@@H](O)[C@H](C)O2)[C@H](C)[C@@H](O[C@@H]2O[C@H](C)C[C@H](N(C)C)[C@H]2O)[C@](C)(O)C[C@@H](C)C(=O)[C@H](C)[C@@H](O)[C@]1(C)O [Erythromycin]
ORAL BIOAVAILABILITY ([2]; Table CYP3A4): 30-65% ^

CC(C(=O)O)c1ccc(C(=O)c2cccs2)cc1 (stereo not shown) [Suprofen]
HALF LIFE ([1]; Table CYP2C9): 2 to 4 h

Nc1c2c(nc3ccccc13)CCCC2 [Tacrine]
HALF LIFE ([1]; in vivo): 2 to 4 h

CN(C)C[C@H]1CCCC[C@]1(O)c1cccc(O)c1 [O-desmethyltramadol]
HALF LIFE ([1]; Table CYP2D6): 9 h

C[C@@H](O[C@H]1OCCN(Cc2n[nH]c(=O)[nH]2)[C@H]1c1ccc(F)cc1)c1cc(C(F)(F)F)cc(C(F)(F)F)c1 [Aprepitant]
ORAL BIOAVAILABILITY ([2]; Table CYP3A4): 60-65% ^

C=CCc1ccccc1OCC(O)CNC(C)C (stereo not shown) [Alprenolol]
HALF LIFE ([1]; Table CYP2D6): 2 to 3 h

CN1CCN(C2=Nc3cc(Cl)ccc3Nc3ccccc32)CC1 [Clozapine]
HALF LIFE ([1]; Table CYP1A2): 4 to 66 h

CC(=O)O[C@H]1C(=O)[C@@]2(C)[C@H]([C@H](OC(=O)c3ccccc3)[C@]3(O)C[C@H](OC(=O)[C@H](O)[C@@H](NC(=O)c4ccccc4)c4ccccc4)C(C)=C1C3(C)C)[C@]1(OC(C)=O)CO[C@@H]1C[C@@H]2O [Paclitaxel]
HALF-LIFE ([1]; Table CYP3A4): 13.1 to 57.7 h

COCCCC/C(=N\OCCN)c1ccc(C(F)(F)F)cc1 [Fluvoxamine]
HALF LIFE ([1]; Table CYP1A2): ~14 to 16 h

Fc1ccccc1C1=NCC(=S)N(CC(F)(F)F)c2ccc(Cl)cc21 [Quazepam]
ORAL BIOAVAILABILITY ([2]; Table CYP3A4): 29-35% ^

CN1[C@@H]2CC[C@H]1C[C@@H](OC(=O)c1c[nH]c3ccccc13)C2 [Tropisetron]
HALF LIFE ([1]; Table CYP2D6): 5.6 to 8.6 h

COc1cc(C(C)=O)ccc1OCCCN1CCC(c2noc3cc(F)ccc23)CC1 [Iloperidone]
HALF LIFE ([1]; Table CYP2D6): 18 to 33 h

CN1CCN2c3ccccc3Cc3ccccc3C2C1 (stereo not shown) [Mianserin]
ORAL BIOAVAILABILITY ([2]; Table CYP2D6): 20-30% ^

CC(CN1c2ccccc2Sc2ccccc21)N(C)C (stereo not shown) [Promethazine]
HALF LIFE ([1]; Table CYP2D6): 16 to 19 h

Fc1ccc([C@@H]2CCNC[C@H]2COc2ccc3c(c2)OCO3)cc1 [Paroxetine]
HALF LIFE ([1]; Table CYP2D6): 15 to 21 h

CN(CCOc1ccc(CC2SC(=O)NC2=O)cc1)c1ccccn1 (stereo not shown) [Rosiglitazone]
HALF LIFE ([1]; Table CYP2C9): 3 to 4 h
